Our source for the EC50 and IC50 values is US8614206B2 (Genentech, Inc., priority 2011, dated 2013).

Each structure is given as a SMILES string. Read-outs that look alike come from different tables or passages of the source.

Experiment [1] relates to MM1.S (multiple myeloma) cells. Nature of the experiment: In vitro cell proliferation, MM1.S multiple myeloma cells (CellTiter-Glo, ATP). The format is cell-based. The note with it: read-out: Prolif MM1S ATP (EC50). Here is the method: BaF3, a murine interleukin-3 dependent pro-B cell line, parental cells, BaF3 PIM1 cells, BaF3 PIM2 cells, and MM1.S (multiple myeloma) cells were seeded at 2 k/well, 5 k/well, 5 k/well, and 10 k/well respectively, in a 384-well plate, at 45 μL/well. Test compound was added at 5 μL/well. BaF3 cells (parental and transfected) were incubated overnight, while MM1.S cells were incubated for 72 hours at 37° C., 5% CO2. […] IC50/EC50 values for the test compound were calculated.

A further experiment deals with BaF3 parental cells. Nature of the experiment: In vitro cell proliferation, BaF3 parental line + IL3 (CellTiter-Glo). Format: cell-based, murine.
[2] abbreviates: BaF3 parental cells with IL-3, incubated overnight, read-out: Prolif BaF3 + IL3 (IC50).
[3] abbreviates: Mus musculus, BaF3, BaF3 parental cells with IL-3, incubated overnight, read-out: Prolif BaF3 + IL3 (IC50).
Setting [4] is: Mus musculus, BaF3, BaF3 parental cells with IL-3, incubated overnight, read-out: Prolif BaF3 IL3 (IC50).

As for `Cn1ncc(NC(=O)c2nc(-c3c(F)cccc3F)sc2N)c1N1CCC(N)C(O)CC1` (single isomer, unassigned) [Example 328, 5-amino-N-[5-(4-amino-5-hydroxy-azepan-1-yl)-1-methyl-pyrazol-4-yl]-2-(2,6-difluorophenyl)thiazole-4-carboxamide], the concentration for a half-maximal effect (EC50) in experiment [1] (72 hours) turned out to be 11.5 µM. The IC50 in the experiment on BaF3 parental cells (setting [2]) is above 25 µM.

As to `Cn1ncc(NC(=O)c2nc(-c3c(F)cccc3F)sc2N)c1N1CCC(N)C(O)CC1` (single isomer, unassigned) [Example 337, 5-amino-N-[5-(4-amino-5-hydroxy-azepan-1-yl)-1-methyl-pyrazol-4-yl]-2-(2,6-difluorophenyl)thiazole-4-carboxamide], the EC50 in experiment [1] (72 hours) is 0.0308 µM. In the experiment on BaF3 parental cells (setting [2]), the IC50 was 25 µM.

Regarding `COC1(C)CC(N)CCN(c2c(NC(=O)c3nc(-c4c(F)cccc4F)sc3N)cnn2C)C1` (single isomer, unassigned) [Example 352, 5-amino-N-[5-(5-amino-3-methoxy-3-methyl-azepan-1-yl)-1-methyl-pyrazol-4-yl]-2-(2,6-difluorophenyl)thiazole-4-carboxamide], the EC50 in experiment [1] (72 hours) was determined as 0.00869 µM. The half-inhibitory concentration (IC50) with BaF3 parental cells (setting [2]) was found to be 10.4 µM.

On to `COC1(C)CC(N)CCN(c2c(NC(=O)c3nc(-c4c(F)cccc4F)sc3N)cnn2C)C1` (single isomer, unassigned) [Example 353, 5-amino-N-[5-(5-amino-3-methoxy-3-methyl-azepan-1-yl)-1-methyl-pyrazol-4-yl]-2-(2,6-difluorophenyl)thiazole-4-carboxamide], for which, in experiment [1] (72 hours), the concentration giving a half-maximal response (EC50) came out at 0.139 µM. Moreover, the IC50 in the experiment on BaF3 parental cells (setting [2]) came to 25 µM.

On to `CO[C@H]1CCC(c2c(NC(=O)c3nc(-c4ccccc4F)sc3N)cnn2C)CC[C@@H]1N` (single isomer, unassigned) [Example 414], for which, in experiment [1] (Homo sapiens, MM1.S, 72 h), the EC50 stood at 0.0699 µM. Further, the IC50 in the experiment with BaF3 parental cells (setting [3]) is above 25 µM.

On to `Cn1ncc(NC(=O)c2nc(-c3c(F)cccc3F)sc2N)c1N1CCCC(C)(N)CC1` (single isomer, unassigned) [Example 436, 5-amino-N-[5-(4-amino-4-methyl-azepan-1-yl)-1-methyl-pyrazol-4-yl]-2-(2,6-difluorophenyl)thiazole-4-carboxamide], for which the EC50 in experiment [1] (Homo sapiens, MM1.S, 72 h) is 4.9 µM. In addition, the IC50 with BaF3 parental cells (setting [3]) was 8.3 µM.

For the compound `Cn1ncc(NC(=O)c2nc(-c3c(F)cccc3F)sc2N)c1N1CCC(N)CC2(CCO2)C1` (single isomer, unassigned) [Example 448, 5-amino-N-[5-(6-amino-1-oxa-9-azaspiro[3.6]decan-9-yl)-1-methyl-pyrazol-4-yl]-2-(2,6-difluorophenyl)thiazole-4-carboxamide], the EC50 in experiment [1] (72 hours) was 1.4 µM. Moreover, the IC50 with BaF3 parental cells (setting [3]) is above 25 µM.

`Cn1ncc(NC(=O)c2nc(-c3c(F)cccc3F)sc2N)c1N1CCC(N)CC2(CCO2)C1` (single isomer, unassigned) [Example 452, 5-amino-N-[5-(6-amino-1-oxa-9-azaspiro[3.6]decan-9-yl)-1-methyl-pyrazol-4-yl]-2-(2,6-difluorophenyl)thiazole-4-carboxamide]: the EC50 in experiment [1] (72 hours) was 0.0793 µM. Moreover, the IC50 in the experiment on BaF3 parental cells (setting [2]) turned out to be 24.7 µM.

For `Cn1ncc(NC(=O)c2nc(-c3c(F)cccc3F)sc2N)c1C1CCC(N)CC(C)(O)C1` (single isomer, unassigned) [Example 456, 5-amino-N-[5-(5-amino-3-hydroxy-3-methyl-cycloheptyl)-1-methyl-pyrazol-4-yl]-2-(2,6-difluorophenyl)thiazole-4-carboxamide], the EC50 in experiment [1] (72 hours) is above 25 µM. The IC50 with BaF3 parental cells (setting [3]) is above 25 µM.

With `Cn1ncc(NC(=O)c2nc(-c3c(F)cccc3F)sc2N)c1C1CCC(N)CC(C)(O)C1` (single isomer, unassigned) [Example 467, 5-amino-N-[5-(5-amino-3-hydroxy-3-methyl-cycloheptyl)-1-methyl-pyrazol-4-yl]-2-(2,6-difluorophenyl)thiazole-4-carboxamide], the EC50 in experiment [1] (72 hours) amounted to 4.8 µM. In the experiment on BaF3 parental cells (setting [2]), the IC50 is above 25 µM.

As to `Cn1ncc(NC(=O)c2nc(-c3c(F)cccc3F)sc2N)c1C1CCC(N)CC(C)(O)C1` (single isomer, unassigned) [Example 468, 5-amino-N-[5-(5-amino-3-hydroxy-3-methyl-cycloheptyl)-1-methyl-pyrazol-4-yl]-2-(2,6-difluorophenyl)thiazole-4-carboxamide], the EC50 in experiment [1] (72 hours) is 0.824 µM. Also, the IC50 in the experiment on BaF3 parental cells (setting [2]) was above 25 µM.

With `Cn1ncc(NC(=O)c2nc(-c3c(F)cccc3F)sc2N)c1N1CCNC[C@]2(CCO2)C1` (single isomer, unassigned) [Example 483], the EC50 in experiment [1] (Homo sapiens, MM1.S, 72 h) was above 25 µM. For the same compound, the IC50 in the experiment with BaF3 parental cells (setting [3]) was above 25 µM.

As for `COC1(C)CCN(c2c(NC(=O)c3nc(-c4c(F)cccc4F)sc3N)cnn2C)CCC1N` (single isomer, unassigned) [Example 502, 5-amino-N-[5-(5-amino-4-methoxy-4-methyl-azepan-1-yl)-1-methyl-pyrazol-4-yl]-2-(2,6-difluorophenyl)thiazole-4-carboxamide], in experiment [1] (72 hours), the EC50 was 2.2 µM. In addition, in the experiment on BaF3 parental cells (setting [3]), the IC50 is 11.9 µM.

On to `COC1(C)CCN(c2c(NC(=O)c3nc(-c4c(F)cccc4F)sc3N)cnn2C)CCC1N` (single isomer, unassigned) [Example 503, 5-amino-N-[5-(5-amino-4-methoxy-4-methyl-azepan-1-yl)-1-methyl-pyrazol-4-yl]-2-(2,6-difluorophenyl)thiazole-4-carboxamide], for which the EC50 in experiment [1] (72 hours) came to 0.108 µM. The IC50 with BaF3 parental cells (setting [2]) is 11 µM.

Turning to `Cn1ncc(NC(=O)c2nc(-c3c(F)cccc3F)sc2N)c1N1CCC(N)C(C(F)F)CC1` (single isomer, unassigned) [Example 512, 5-amino-N-[5-[4-amino-5-(difluoromethyl)azepan-1-yl]-1-methyl-pyrazol-4-yl]-2-(2,6-difluorophenyl)thiazole-4-carboxamide], the EC50 in experiment [1] (Homo sapiens, MM1.S, 72 h) came out at 2 µM. The IC50 in the experiment on BaF3 parental cells (setting [2]) was 24.6 µM.

As for `Cn1ncc(NC(=O)c2nc(-c3c(F)cccc3F)sc2N)c1N1CC[C@H](N)C[C@@H](F)C1` (stereo in doubt) [Example 154, 5-amino-N-(5-(5-amino-3-fluoroazepan-1-yl)-1-methyl-1H-pyrazol-4-yl)-2-(2,6-difluorophenyl)thiazole-4-carboxamide], the EC50 in experiment [1] (Homo sapiens, MM1.S, 72 h) was 0.0651 µM. In addition, the IC50 in the experiment with BaF3 parental cells (setting [4]) was 24.5 µM.

For the compound `CNCC1CCN(c2c(NC(=O)c3nc(-c4c(F)cccc4F)sc3N)cnn2C)CC1` [Example 101, 5-Amino-2-(2,6-difluorophenyl)-N-(1-methyl-5-(4-((methylamino)methyl)piperidin-1-yl)-1H-pyrazol-4-yl)thiazole-4-carboxamide], in experiment [1] (Homo sapiens, MM1.S, 72 h), the EC50 was 17.9 µM. Further, the IC50 in the experiment with BaF3 parental cells (setting [4]) was determined as 19.5 µM.

With `CC[C@H]1CNCCN1c1c(NC(=O)c2nc(-c3c(F)cccc3F)sc2N)cnn1C` [Example 113, (S)-5-Amino-2-(2,6-difluorophenyl)-N-(5-(2-ethylpiperazin-1-yl)-1-methyl-1H-pyrazol-4-yl)thiazole-4-carboxamide], in experiment [1] (Homo sapiens, MM1.S, 72 h), the EC50 worked out at 19 µM. Besides, in the experiment with BaF3 parental cells (setting [4]), the IC50 was above 25 µM.

Turning to `Cn1ncc(NC(=O)c2nc(-c3c(F)cccc3F)sc2N)c1N1CCC2(CCNC2)CC1` [Example 124, 5-Amino-2-(2,6-difluorophenyl)-N-(1-methyl-5-(2,8-diazaspiro[4.5]decan-8-yl)-1H-pyrazol-4-yl)thiazole-4-carboxamide], the EC50 in experiment [1] (Homo sapiens, MM1.S, 72 h) amounted to 1.4 µM. Besides, the IC50 in the experiment on BaF3 parental cells (setting [4]) turned out to be 22.1 µM.

For `Cn1ncc(NC(=O)c2nc(-c3c(F)cccc3F)sc2N)c1N1CC[C@@H](N)C[C@@H](F)C1` [Example 126, 5-amino-N-(5-((3R,5R)-5-amino-3-fluoroazepan-1-yl)-1-methyl-1H-pyrazol-4-yl)-2-(2,6-difluorophenyl)thiazole-4-carboxamide], in experiment [1] (Homo sapiens, MM1.S, 72 h), the EC50 is 0.11 µM. For the same compound, the IC50 in the experiment on BaF3 parental cells (setting [4]) was above 25 µM.

`Cn1ncc(NC(=O)c2nc(-c3c(F)cccc3F)sc2N)c1N1CCNCC2(CC2)C1` [Example 313, 5-amino-N-[5-(5,8-diazaspiro[2.6]nonan-8-yl)-1-methyl-pyrazol-4-yl]-2-(2,6-difluorophenyl)thiazole-4-carboxamide]: the EC50 in experiment [1] (Homo sapiens, MM1.S, 72 h) was 6.4 µM. In addition, the IC50 in the experiment on BaF3 parental cells (setting [3]) came to 17 µM.

Turning to `COC1CCN(c2c(NC(=O)c3nc(-c4c(F)cccc4F)sc3N)cnn2C)CCC1N` (centres unmarked) [Example 314, 5-amino-N-[5-(4-amino-5-methoxy-azepan-1-yl)-1-methyl-pyrazol-4-yl]-2-(2,6-difluorophenyl)thiazole-4-carboxamide], in experiment [1] (72 hours), the EC50 is 9 µM. Also, the IC50 in the experiment with BaF3 parental cells (setting [3]) was found to be 13.9 µM.

With `COC1CC(N)CCN(c2c(NC(=O)c3nc(-c4c(F)cccc4F)sc3N)cnn2C)C1` (centres unmarked) [Example 316, 5-amino-N-[5-(5-amino-3-methoxy-azepan-1-yl)-1-methyl-pyrazol-4-yl]-2-(2,6-difluorophenyl)thiazole-4-carboxamide], the EC50 in experiment [1] (72 hours) was found to be 0.163 µM. For the same compound, the concentration for half-maximal inhibition (IC50) with BaF3 parental cells (setting [2]) was above 25 µM.

Consider `COC1CC(N)CCN(c2c(NC(=O)c3nc(-c4c(F)cccc4F)sc3N)cnn2C)C1` (centres unmarked) [Example 317, 5-amino-N-[5-(5-amino-3-methoxy-azepan-1-yl)-1-methyl-pyrazol-4-yl]-2-(2,6-difluorophenyl)thiazole-4-carboxamide], for which, in experiment [1] (72 hours), the EC50 was determined as 0.663 µM. Moreover, the IC50 in the experiment with BaF3 parental cells (setting [2]) is above 25 µM.

Regarding `COC1CC(N)CCN(c2c(NC(=O)c3nc(-c4c(F)cccc4F)sc3N)cnn2C)C1` (centres unmarked) [Example 320, 5-amino-N-[5-(5-amino-3-methoxy-azepan-1-yl)-1-methyl-pyrazol-4-yl]-2-(2,6-difluorophenyl)thiazole-4-carboxamide], in experiment [1] (72 hours), the EC50 was 0.118 µM. Besides, the IC50 in the experiment with BaF3 parental cells (setting [3]) came to 25 µM.
